In patent publication US6410790B1, “3-amin3-arylpropan-1-ol compounds, their preparation and use” (priority 1999, dated 2002):

Assays:
[1] = system: phenylalkylamine binding site of the L-type calcium channel; assay: Verapamil binding, L calcium channel; settings: for Verapamil Binding at 10 μM: percentage inhibition, N-methyl-[3H]-verapamil 2 nM
Experimental: Binding Investigations in the L Calcium Channel
Phenylalkylamine Binding Site (Verapamil Binding)
The biological material (ion channel particles) was prepared on the basis of the publication of Reynolds, Gould and Snyder (I. J. Reynolds, R. J. Gould and S. H. Snyder (1983) […]. 95, 319-321).
N-methyl-[^3H]-verapamil (2 nM in the assay) was used as radioligand. The radioactivity that is measured in the presence of non-radioactive verapamil (10^−4 M in the assay) is defined as non-specific binding. The material was incubated at 25° C. for 45 minutes. The material was then filtered using a Whatman GF/B filter, followed by washing. The radioactivity remaining on the filter (ion channel binding) was measured using a β-counter.
For this purpose IC50 values are obtained, which can be converted to inhibitor constants (Ki) according to the “Cheng-Prusoff equation” (Y. C. Clieng and W. H. Prusoff (1973) Biochem. Pharmacol. 22, 3099-3108). The IC50 values were obtained by means of the computer program “Figure P” (version 6.0, Biosoft, Cambridge, England). Km values were calculated according to Lineweaver and Burk (H. Lineweaver and D. Burk (1934) J. Am. Chem. Soc. 56, 658-666). The “Ligand” computer program (version 4, Biosoft, England) was used to obtain Ken values.

[2] = system: benzothiazepine binding site of the L-type calcium channel; assay: Diltiazem binding, L calcium channel; parameters: species or system rat; settings: 10 μM, percentage inhibition, [3H]-cis-(+)-diltiazem 5 nM, rat cerebral cortex membranes
Outline: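 Rat cerebral cortex membranes incubated with [^3H]-cis-(+)-diltiazem (5 nM) for 20 min at 25° C; nonspecific binding defined with (±)-diltiazem (10^−6 M). Bound ligand collected by GF/B filtration and counted; IC50 values converted to Ki by Cheng-Prusoff.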

[3] = system: binding site 2 of the sodium channel; assay: BTX binding, sodium channel; settings: 10 μM, percentage inhibition, [3H]-batrachotoxin A20 α-benzoate 10 nM, rat cerebral cortex synaptosomes
Outline: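 Rat cerebral cortex synaptosomes incubated with 10 nM [^3H]-batrachotoxin A20 α-benzoate at 37° C for 120 min; non-specific binding defined with 0.3 mM veratridine. IC50 values converted to Ki via Cheng-Prusoff; means±SEM of 3 independent series run in triplicate.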

[4] = target: T1, NA transporter (Rattus norvegicus, UniProt Q63380); assay: synaptosomal noradrenaline uptake inhibition (NA uptake inhibition); format: biochemical; settings: for NA Uptake Inhibition at 1 μM: 1 μM in the assay, synaptosomes from rat hypothalamus; for inhibition at 1 µM: read-out: NA Uptake Inhibition at 1 μM, 1 μM in the assay, synaptosomes from rat hypothalamus
T1 construct: synaptosomes are isolated fresh from rat brains; from tissue; host or cells: rat hypothalamus synaptosomes (P2 fraction)
Outline: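 IC50 values converted to Ki via Cheng-Prusoff; Km by Lineweaver-Burk. N=4 independent series, each in triplicate, mean ± SEM.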

[5] = system: phenylquinone-induced writhing reaction; assay: phenylquinone-induced writhing test in mice; format: in vivo; settings: male NMRI mice, phenylquinone i.p. 10 minutes later; for inhibition in vivo at 10 mg/kg: Mus musculus, iv, 10 min, 10 mg/kg intravenously
Outline: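 Male NMRI mice (25–30 g, n=10/group) received test substance i.v. at 10 mg/kg, then 0.02% phenylquinone i.p. 10 min later. Writhing reactions were counted 5–20 min after phenylquinone; % inhibition is relative to saline-treated controls.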

T1 sequence (Q63380 1-617): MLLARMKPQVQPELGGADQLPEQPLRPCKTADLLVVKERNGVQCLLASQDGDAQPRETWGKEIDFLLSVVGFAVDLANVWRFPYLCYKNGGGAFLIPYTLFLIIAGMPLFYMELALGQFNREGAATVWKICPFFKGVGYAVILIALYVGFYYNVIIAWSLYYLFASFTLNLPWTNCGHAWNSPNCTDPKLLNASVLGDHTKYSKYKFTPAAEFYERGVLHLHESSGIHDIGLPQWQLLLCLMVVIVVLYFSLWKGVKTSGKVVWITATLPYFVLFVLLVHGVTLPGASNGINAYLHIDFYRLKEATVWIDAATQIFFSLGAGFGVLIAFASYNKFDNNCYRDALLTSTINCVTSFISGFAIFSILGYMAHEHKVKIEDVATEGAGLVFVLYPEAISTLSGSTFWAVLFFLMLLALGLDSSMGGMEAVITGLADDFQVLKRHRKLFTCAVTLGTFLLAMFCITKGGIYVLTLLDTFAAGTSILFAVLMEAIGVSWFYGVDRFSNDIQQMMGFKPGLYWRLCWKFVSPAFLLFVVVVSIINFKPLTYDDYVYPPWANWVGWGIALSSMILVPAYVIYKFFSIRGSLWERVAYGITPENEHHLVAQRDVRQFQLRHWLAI

SMILES: CN(C)C(c1ccccc1)C1CCCCC1(O)c1ccc(Cl)c(Cl)c1.Cl (single isomer, unassigned; (+)) [+19, (+)-1-(3,4-dichlorophenyl)-2-(dimethylaminophenylmethyl)cyclohexanol, hydrochloride]
- Verapamil Binding at 10 μM ([1]; hydrochloride): 82%
- Diltiazem Binding at 10 μM [2]: 85%
- BTX Binding at 10 μM ([3]; hydrochloride): 92%
- NA Uptake Inhibition at 1 μM ([4]; hydrochloride): 62%
- inhibition in vivo at 10 mg/kg [5]: 74%

SMILES: CN(C)C(c1ccccc1)C1CCCCC1(O)c1ccc(Cl)c(Cl)c1.Cl (single isomer, unassigned; (-)) [−19, (−)-1(3,4-dichlorophenyl)-2-(dimethylaminophenylmethyl)cyclohexanol, hydrochloride]
- Verapamil Binding at 10 μM ([1]; hydrochloride): 83%
- Diltiazem Binding at 10 μM [2]: 85%
- BTX Binding at 10 μM ([3]; hydrochloride): 96%
- NA Uptake Inhibition at 1 μM ([4]; hydrochloride): 36%
- % Inhibition of the writhing reaction at 10 mg/kg intravenously ([5]; hydrochloride, 10 mg/kg): 88%

SMILES: COc1cccc(C2(O)CCCCC2C(c2ccccc2)N(C)C)c1.Cl (stereo not shown) [Example 1, 2-(dimethlylaminophenylmethyl)-1-(3-methoxyphenyl)cyclohexanol, hydrochloride]
- Verapamil Binding at 10 μM [1]: 76%
- Diltiazem Binding at 10 μM [2]: 65%
- BTX Binding at 10 μM [3]: 77%
- NA Uptake Inhibition at 1 μM [4]: 41%
- % Inhibition of the writhing reaction at 10 mg/kg intravenously [5]: 85%

SMILES: CN(C)C(c1ccccc1)C1CCCCC1(O)c1cccc(F)c1.Cl (stereo not shown) [Example 2, 2-(dimethylaminophenylmethyl)-1-(3-fluorophenyl)cyclohexaniol, hydrochloride]
- Verapamil Binding at 10 μM [1]: 76%
- Diltiazem Binding at 10 μM [2]: 52%
- BTX Binding at 10 μM [3]: 80%
- NA Uptake Inhibition at 1 μM [4]: 52%
- % Inhibition of the writhing reaction at 10 mg/kg intravenously [5]: 88%

SMILES: CN(C)C(c1ccccc1)C1CCCCC1(O)c1ccccc1.Cl (stereo not shown) [Example 3, 2-(dimethylaminophenylmethyl)-1-phenylcyclohexanol, hydrochloride]
- Verapamil Binding at 10 μM [1]: 68%
- Diltiazem Binding at 10 μM [2]: 50%
- BTX Binding at 10 μM [3]: 78%
- inhibition at 1 µM [4]: 41%
- inhibition in vivo at 10 mg/kg [5]: 83%

SMILES: CN(C)C(c1ccccc1)C1CCCCC1(O)c1cccc(O)c1.Cl (stereo not shown) [Example 4]
- Verapamil Binding at 10 μM [1]: 57%
- Diltiazem Binding at 10 μM [2]: 46%
- BTX Binding at 10 μM [3]: 70%
- NA Uptake Inhibition at 1 μM [4]: 49%
- % Inhibition of the writhing reaction at 10 mg/kg intravenously [5]: 75%

SMILES: COc1ccc(C2(O)CCCCC2C(c2ccccc2)N(C)C)cc1.Cl (stereo not shown) [Example 5, 2-(dimethylaminophenylmethyl)-1-(4-methoxyphenyl)cyclohexanol, hydrochloride]
- Verapamil Binding at 10 μM [1]: 56%
- Diltiazem Binding at 10 μM [2]: 54%
- BTX Binding at 10 μM [3]: 97%
- inhibition at 1 µM [4]: 70%
- inhibition in vivo at 10 mg/kg [5]: 100%

SMILES: CN(C)C(c1ccccc1)C1CCCCC1(O)c1ccc(Cl)cc1.Cl (stereo not shown) [Example 6, 1-(4-chlorophenyl)-2-(dimethylaminophenylmethyl)cyclohexanol, hydrochloride]
- Verapamil Binding at 10 μM [1]: 60%
- Diltiazem Binding at 10 μM [2]: 96%
- BTX Binding at 10 μM [3]: 90%
- inhibition at 1 µM [4]: 51%
- inhibition in vivo at 10 mg/kg [5]: 83%

SMILES: CN(C)C(c1ccccc1)C1CCCCC1(O)c1ccc(F)cc1.Cl (stereo not shown) [Example 7, 2-(dimethylaminophenylmethyl)-1-(4-fluorophenyl)cyclohexanol, hydrochloride]
- Verapamil Binding at 10 μM [1]: 56%
- Diltiazem Binding at 10 μM [2]: 78%
- BTX Binding at 10 μM [3]: 86%
- inhibition at 1 µM [4]: 38%
- inhibition in vivo at 10 mg/kg [5]: 85%

SMILES: CN(C)c1ccc(C2(O)CCCCC2C(c2ccccc2)N(C)C)cc1.Cl (stereo not shown) [Example 10, 1-(4-dimethylaminophenyl)-2-[dimethylaminophenylmethyl]cyclohexanol, hydrochloride]
- Verapamil Binding at 10 μM [1]: 61%
- Diltiazem Binding at 10 μM [2]: 69%
- BTX Binding at 10 μM [3]: 88%
- inhibition at 1 µM [4]: 48%
- inhibition in vivo at 10 mg/kg [5]: 97%

SMILES: CN(C)C(c1ccccc1)C1CCCCC1(O)c1cccc2c1OCO2.Cl (stereo not shown) [Example 11, 1-benzo[1,3]dioxol-4-yl-2-(dimethylaminophenylmethyl)cyclohexanol, hydrochloride]
- Verapamil Binding at 10 μM [1]: 61%
- Diltiazem Binding at 10 μM [2]: 85%
- BTX Binding at 10 μM [3]: 79%
- inhibition at 1 µM [4]: 54%
- inhibition in vivo at 10 mg/kg [5]: 99%

SMILES: CN(C)C(c1ccccc1)C1CCCCC1(O)Cc1ccccc1.Cl (stereo not shown) [Example 14, 1-benzyl-2-(dimethylaminophenylmethyl)cyclohexanol, hydrochloride]
- Diltiazem Binding at 10 μM [2]: 88%
- BTX Binding at 10 μM [3]: 89%
- melting point: 223 to 225 °C
- inhibition at 1 µM [4]: 100%
- inhibition in vivo at 10 mg/kg [5]: 70%

SMILES: CN(C)C(c1ccccc1)C1CCCCC1(O)Cc1ccc(OC(F)(F)F)cc1.Cl (stereo not shown) [Example 16, 2-(dimethylaminophenylmethyl)-1-(4-trifluoromethoxybenzyl)cyclohexanol, hydrochloride]
- Verapamil Binding at 10 μM [1]: 91%
- Diltiazem Binding at 10 μM [2]: 100%
- BTX Binding at 10 μM [3]: 98%
- inhibition at 1 µM [4]: 89%
- inhibition in vivo at 10 mg/kg [5]: 75%

SMILES: CN(C)C(c1ccccc1)C1CCCCC1(O)c1ccoc1.Cl (stereo not shown) [Example 17, 2-(dimethylaminophenylmethyl)-1-furan-3-ylcyclohexanol, hydrochloride]
- Verapamil Binding at 10 μM [1]: 72%
- Diltiazem Binding at 10 μM [2]: 54%
- BTX Binding at 10 μM [3]: 70%
- inhibition at 1 µM [4]: 57%
- inhibition in vivo at 10 mg/kg [5]: 100%

SMILES: CCCCC1(O)CCCCC1C(c1ccccc1)N(C)C.Cl (stereo not shown) [Example 18, 1-butyl-2-(dimethylaminophenylmethyl)cyclohexanol, hydrochloride]
- Verapamil Binding at 10 μM [1]: 75%
- Diltiazem Binding at 10 μM [2]: 81%
- BTX Binding at 10 μM [3]: 95%
- inhibition at 1 µM [4]: 84%
- inhibition in vivo at 10 mg/kg [5]: 100%

SMILES: CN(C)C(c1ccccc1)C1CCCCC1(O)c1ccc(Cl)c(Cl)c1 (stereo not shown) [Example 19, 1-(3,4-dichlorophenyl)-2-(dimethylaminophenylmethyl)-cyclohexanol]
- Verapamil Binding at 10 μM [1]: 81%
- BTX Binding at 10 μM [3]: 97%
- NA Uptake Inhibition at 1 μM [4]: 50%

SMILES: CN(C)C(c1ccccc1)C1CCCCC1(O)c1ccc2ccccc2c1.Cl (stereo not shown) [Example 21, 2-(dimethylaminophenylmethyl)-1-naphthalene-2-ylcyclohexanol, hydrochloride]
- Verapamil Binding at 10 μM [1]: 71%
- Diltiazem Binding at 10 μM [2]: 85%
- BTX Binding at 10 μM [3]: 94%
- inhibition at 1 µM [4]: 17%
- inhibition in vivo at 10 mg/kg [5]: 97%

SMILES: COc1cccc(CC2(O)CCCCC2C(c2ccc(C(F)(F)F)cc2)N(C)C)c1.Cl (stereo not shown) [Example 22, 2-[dimethylamino-(4-trifluoromethylphenyl)methyl]-1-(3-methoxybenzyl)cyclohexanol, hydrochloride]
- Verapamil Binding at 10 μM [1]: 80%
- Diltiazem Binding at 10 μM [2]: 72%
- BTX Binding at 10 μM [3]: 98%
- inhibition at 1 µM [4]: 91%
- inhibition in vivo at 10 mg/kg [5]: 68%

SMILES: Cc1ccccc1C(C1CCCCC1(O)c1ccccc1)N(C)C.Cl (stereo not shown) [Example 81, 2-(dimethylamino-o-tolylmethyl)-1-phenylcyclohexanol, hydrochloride]
- Diltiazem Binding at 10 μM ([2]; hydrochloride): 83%
- BTX Binding at 10 μM ([3]; hydrochloride): 99%
- NA Uptake Inhibition at 1 μM ([4]; hydrochloride): 66%
- % Inhibition of the writhing reaction at 10 mg/kg intravenously ([5]; hydrochloride, 10 mg/kg): 75%

SMILES: CN(C)C(c1cccs1)C1CCCCC1(O)Cc1ccc(C(C)(C)C)cc1.Cl (stereo not shown) [Example 82, 1-(4-tert.-butylbenzyl)-2-[dimethylaminothiophen-2-ylmethyl]cyclohexanol, hydrochloride]
- Diltiazem Binding at 10 μM [2]: 85%
- BTX Binding at 10 μM [3]: 98%
- inhibition at 1 µM [4]: 0%
- inhibition in vivo at 10 mg/kg [5]: 100%

SMILES: COc1ccc(CCN(C)CCCC(C#N)(c2ccc(OC)c(OC)c2)C(C)C)cc1OC (stereo not shown) [N-methyl-[^3H]-verapamil, reference compound]
- Kd ([1]; radioligand, N=2, read-out: KD value for this binding site): 139 nM
